# Assay results from US10570117B2, “Phenylimidazole compound” (Otsuka Pharmaceutical Factory, Inc., priority 2015, dated 2020).
# Where two headings read alike, the source gives them in different places.
# Columns and labels:
# [1] = system: lipoprotein lipase (LPL) gene; assay: LPL mRNA elevating action (RT-PCR quantification of LPL mRNA in C2Cl2 cells); type: cell-based, mouse; details: Mus musculus, 24 h, compound 10 μM, ratio relative to the amount of LPL mRNA in cells with DMSO only, read-out: Rate of increase in LPL mRNA
# In short: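 Read-out is LPL mRNA relative to vehicle (DMSO = 1), measured by reverse transcription and 20-cycle real-time PCR. Cells were the mouse striated-muscle line C2Cl2, treated 24 h with 10 μM compound in DMEM containing 10% FBS.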
# [2] = Solubility in gastric juice or intestinal juice model fluid (precipitation method using DMSO); type: physicochemical; details: room temperature
# In short: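 Dissolved amount (μg/mL) quantified by UV of filtrate versus pre-made calibration curves. Precipitation approach: DMSO solutions spiked into pH 1.2 (JP 1st fluid) or pH 6.8 (JP 2nd fluid) medium, shaken at room temperature for 24 h before insolubles were filtered off.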
# [3] = pH 1.2, simulated gastric fluid, kinetic from dmso stock, 1st fluid for Disintegration Test of Japanese Pharmacopoeia (pH: 1.2), read-out: Solubility (μg/mL) 1st fluid
# [4] = pH 6.8, kinetic from dmso stock, 2nd fluid for Disintegration Test of Japanese Pharmacopoeia (pH: 6.8), read-out: Solubility (μg/mL) 2nd fluid
SMILES,fold induction at 10 µM [1],"solubility at 24 h [2, 3]","solubility at 24 h [2, 4]",melting point
COc1cc(OCc2ncc(C(F)(F)F)cc2F)ccc1-c1[nH]c(C2CC(F)(F)C2)nc1C [Example 399],4.68,54.1 µg/mL,3.4 µg/mL,172 to 174 °C
CCOC(C)n1cc(-c2ccc(OCc3ccc(C(F)(F)F)nc3)cc2OC)nc1-c1ccc(F)nc1 (stereo not drawn) [Example 328],2.41,44.2 µg/mL,0.4 µg/mL,102 to 104 °C
COc1cc(OCc2ccc(C(F)(F)F)cn2)ccc1-c1[nH]c(C2CCC(F)(F)CC2)nc1Cl [Example 210],5.69,95.6 µg/mL,1.5 µg/mL,147 to 149 °C
COc1cc(OCc2ncc(C(F)(F)F)cc2F)ccc1-c1[nH]c(-c2ccc(F)nc2)nc1Cl [Example 281],3.36,9.7 µg/mL,9.3 µg/mL,150 to 152 °C
Oc1cc(OCc2ncc(C(F)(F)F)cc2F)ccc1-c1[nH]c(-c2ccc(F)nc2)nc1Cl [Example 407],1.68,2.7 µg/mL,< 0.3 µg/mL,229 to 233 °C (dec.)
COc1cc(OC(C)c2ccc(C(F)(F)F)nc2)ccc1-c1[nH]c(-c2ccc(F)nc2)nc1Cl (stereo not drawn) [Example 239],2.39,8.8 µg/mL,15.6 µg/mL,148 to 150 °C
COc1cc(OCc2ncc(C(F)(F)F)cc2F)ccc1-c1[nH]c(-c2ccc(F)nc2)nc1C [Example 331],2.17,94.6 µg/mL,8 µg/mL,100 to 105 °C
COc1cc(-c2c[nH]c(-c3ccc(Cl)nc3)n2)ccc1OCc1cccc(F)n1 [Example 47],3.26,5.1 µg/mL,0.3 µg/mL,185 to 187 °C
COc1cc(OCc2ccc(C(F)(F)F)nc2)ccc1-c1c(C)nc(-c2ccc(F)nc2)n1C [Example 161],3.06,> 94 µg/mL,3.9 µg/mL,123 to 126 °C
COc1cc(OCc2ccc(C(F)(F)F)cn2)ccc1-c1c[nH]c(-c2cccc(N3CCCC3)n2)n1 [Example 40],0.93,6.9 µg/mL,2.8 µg/mL,100 to 108 °C
COc1cc(-c2[nH]c(C3CCCC3)nc2Cl)ccc1OCc1ncc(C(F)(F)F)cc1F [Example 368],2.62,82.9 µg/mL,0.5 µg/mL,158 to 163 °C
COc1cc(OCc2ncc(F)cc2F)ccc1-c1[nH]c(-c2ccc(F)nc2)nc1Br [Example 266],2.38,64.3 µg/mL,4.6 µg/mL,161 to 164 °C
CCc1cc(OCc2ncc(C(F)(F)F)cc2F)ccc1-c1cnc(-c2ccc(F)nc2)[nH]1 [Example 363],2.78,104 µg/mL,6.9 µg/mL,115 to 117 °C
COc1cc(OCc2ccc(C(F)(F)F)cn2)ccc1-c1nc(-c2ccc(F)nc2)n(C)c1Br [Example 302],2.44,> 107 µg/mL,< 0.4 µg/mL,179 to 181 °C
COc1cc(OCc2cnc(C)cn2)ccc1-c1nc(-c2ccc(F)nc2)[nH]c1Cl [Example 216],2.62,84.3 µg/mL,1.8 µg/mL,208 to 210 °C (dec.)
COc1c(OCc2ccc(C(F)(F)F)cn2)ccc(-c2[nH]c(C3CCC(F)(F)CC3)nc2Cl)c1OC [Example 205],5.41,> 106 µg/mL,< 9.5 µg/mL,175 to 177 °C
COc1cc(OCc2cc(C(C)C)no2)ccc1-c1cnc(-c2ccc(F)nc2)[nH]1 [Example 322],1.55,72 µg/mL,1.3 µg/mL,227 to 232 °C
COc1cc(OCc2ncc(C(F)(F)F)cc2F)ccc1-c1cnc(-c2ccc(Br)nc2)[nH]1 [Example 387],2.41,4.8 µg/mL,0.8 µg/mL,191 to 193 °C
COc1cc(OCc2ccc(C(F)(F)F)cn2)ccc1-c1nc(-c2ccc(Cl)nc2)[nH]c1Br [Example 225],2.8,5.5 µg/mL,0.9 µg/mL,186 to 188 °C
COc1cc(-c2[nH]c(C3CCCC3)nc2Cl)ccc1OCc1ccc(C(F)(F)F)cn1 [Example 194],3.92,> 90 µg/mL,0.5 µg/mL,182 to 184 °C (dec.)

SMILES,fold induction at 10 µM [1],"solubility at 24 h [2, 3]","solubility at 24 h [2, 4]",melting point
COc1cc(OCc2cnccc2C(F)(F)F)ccc1-c1cnc(-c2ccc(F)nc2)[nH]1 [Example 131],3.66,87.4 µg/mL,< 0.3 µg/mL,178 to 180 °C
COc1cc(OC(C)c2ncc(Br)cc2F)ccc1-c1[nH]c(-c2ccc(F)nc2)nc1Cl (stereo not drawn) [Example 238],2.42,7.5 µg/mL,5.6 µg/mL,173 to 175 °C
COc1cc(-c2[nH]c(C3CCC(F)(F)CC3)nc2Br)ccc1OCc1ccc(C(F)(F)F)cn1 [Example 198],6.36,> 109 µg/mL,17.4 µg/mL,158 to 165 °C
COc1cc(OCc2ccc(C(F)(F)F)cn2)ccc1-c1nc(-c2ccc(Cl)nc2)[nH]c1C [Example 68],2.45,104 µg/mL,2.3 µg/mL,129 to 132 °C
COc1cc(OCc2ccc(C(F)(F)F)nc2)ccc1-c1[nH]c(C2CCC(F)(F)CC2)nc1Cl [Example 204],5.07,> 100 µg/mL,< 8.9 µg/mL,122 to 125 °C
COc1cc(-c2cnc(C3CCC(F)(F)CC3)[nH]2)ccc1OCc1ccc(C(F)(F)F)nc1 [Example 16],3.14,90.8 µg/mL,13.4 µg/mL,162 to 167 °C
COc1cc(OCc2ccncc2C(F)(F)F)ccc1-c1[nH]c(-c2ccc(F)nc2)nc1Br [Example 276],2.36,66.5 µg/mL,6.7 µg/mL,199 to 203 °C (dec.)
COCCOc1cc(OCc2ccc(C(F)(F)F)cn2)ccc1-c1c[nH]c(-c2ccc(Cl)nc2)n1 [Example 21],1.99,3 µg/mL,< 1.8 µg/mL,162 to 167 °C
COc1cc(-c2cnc(C3CC(F)(F)C3)[nH]2)ccc1OCc1ncc(C(F)(F)F)cc1F [Example 348],1.76,89.6 µg/mL,22.4 µg/mL,105 to 110 °C
COc1cc(OCc2ccc(C(F)(F)F)cn2)ccc1-c1c[nH]c(C2CCC(C)CC2)n1 (stereo not drawn) [Example 65],2.89,77.3 µg/mL,1.3 µg/mL,137 to 142 °C
COc1cc(OCc2ccc(C(F)(F)F)cn2)ccc1-c1c[nH]c(C2CCCCC2)n1 [Example 77],3.11,8.7 µg/mL,1.3 µg/mL,226 to 228 °C
COc1cc(OCc2ccc(C(F)(F)F)cn2)ccc1-c1[nH]c(C2CCCC(F)(F)C2)nc1Cl (stereo not drawn) [Example 182],3.41,95.5 µg/mL,1.9 µg/mL,162 to 164 °C
COc1cc(OCc2ccccc2)ccc1-c1[nH]c(-c2ccc(F)nc2)nc1C [Example 332],1.91,77.7 µg/mL,3.3 µg/mL,169 to 171 °C
COc1cc(OCc2ccncc2C(F)(F)F)ccc1-c1cnc(-c2ccc(Cl)nc2)[nH]1 [Example 100],3.05,15 µg/mL,< 0.3 µg/mL,220 to 228 °C
COc1cc(OCn2cccn2)ccc1-c1nc(-c2ccc(Cl)nc2)[nH]c1Cl [Example 213],2.04,79.7 µg/mL,2.1 µg/mL,166 to 169 °C
COc1cc(OCc2ccc(C(F)(F)F)cn2)ccc1-c1c(C)nc(-c2ccc(Cl)nc2)n1C [Example 165],3.34,96 µg/mL,2.1 µg/mL,152 to 154 °C
COc1cc(OCc2cnccc2C(F)(F)F)ccc1-c1[nH]c(-c2ccc(F)nc2)nc1Br [Example 256],3.12,11.4 µg/mL,< 0.4 µg/mL,132 to 162 °C
COc1cc(OCc2noc(C3CC3)n2)ccc1-c1cnc(-c2ccc(F)nc2)[nH]1 [Example 334],1.78,76.6 µg/mL,7.8 µg/mL,153 to 158 °C
COc1cc(OCc2ncccc2C(F)(F)F)ccc1-c1nc(-c2ccc(F)nc2)[nH]c1Cl [Example 214],3.66,> 96 µg/mL,7.1 µg/mL,143 to 146 °C
